This assay addresses human A2A receptor (Homo sapiens (Human), UniProt P29274). Kind of assay: competition binding assay using Scintillation Proximity technology. The settings on record: membranes from CHO-K1 cells expressing the human A2a receptor; 2.0 nM tritiated compound; Cheng-Prusoff. The protocol: The utility of the compounds in accordance with the present invention as A2A receptor antagonists may be readily determined without undue experimentation by methodologies well known in the art, including by a competition binding assay using Scintillation Proximity technology. Briefly, membranes from CHO-K1 cells expressing the human A2A receptor are incubated with a test compound at various concentrations, e.g., ranging from 3000 nM to 0.15 nM, in a reaction mixture also containing a tritiated form of 5-amino-7-[2-phenethyl]-2-(furan-2-yl)-7H-pyrazolo[4,3-e][1,2,4]triazolo[1,5-c]pyrimidine (the tritiated compound) and wheatgerm agglutin-coated yttrium silicate SPA beads at room temperature. The beads are then allowed to settle to the bottom of the wells, after which the membrane-associated radioactivity is determined by scintillation counting in a microplate reader. Ki values can be determined using the Cheng-Prusoff equation.
Thus, 1.0 μg of membranes from CHO-K1 cells expressing the human A2a receptor were incubated with a compound of the invention at concentrations ranging from 3000 nM to 0.15 nM in a reaction mixture also containing 2.0 nM of a tritiated form of 5-amino-7-[2-phenethyl]-2-(furan-2-yl)-7H-pyrazolo[4,3-e][1,2,4]triazolo[1,5-c]pyrimidine (the tritiated compound) and 100 μg of wheatgerm agglutin-coated yttrium silicate SPA beads for one hour at room temperature with agitation. The beads were then allowed to settle to the bottom of the wells for 1 hr, after which the membrane-associated radioactivity was determined by scintillation counting in a TopCount microplate reader. Ki values were determined using the Cheng-Prusoff equation.
Summary of Materials and Methods Used in A2a Activity Determination:
• Membranes from CHO-K1 cells expressing the human Adenosine2A receptor (Perkin-Elmer #RBHA2AM400UA). • The tritiated compound was prepared according to published methods. • Wheatgerm agglutinin-coated yttrium silicate SPA beads (GE Healthcare #RPNQ0023). Dilute to 25 mg/ml in Assay Buffer. • Assay Buffer: Dulbecco's calcium and magnesium free phosphate buffered saline+10 mM MgCl2 • Adenosine deaminase (ADA) from calf intestine, 10 mg/2 ml (Roche #10 102 105 001). • DMSO • A2a antagonist standard (9-chloro-1-(2-furanyl)-[1,2,4]triazolo[1,5-c]quinazolin-5-amine from Tocris Bioscience) Compound Dilution • Make eight 1:3 serial dilutions in 100% DMSO from a 3 mM compound stock. • Transfer 50 nL of compound into a 384-well OptiPlate (Perkin Elmer). • Typically, final concentrations of compound used in the assay ranged from 3000 nM to 0.152 nM. Radioisotope • Dilute a solution of the tritiated compound to 5.0 nM in assay buffer. This is a 2.5× solution. The final concentration in the assay is 2.0 nM. Calculate the concentration by counting two 5 μL aliquots. Membrane Preparation • Use 1.0 μg of membrane/well. Dilute membranes to 33 μg/mL in assay buffer. Treat with 20 μg/mL ADA for 15 minutes at room temperature to degrade endogenous adenosine. Membrane-Bead Mixture • Use 100 μg/well wheatgerm agglutinin-coated yttrium silicate SPA beads. • Mix ADA-treated membranes and SPA beads together for 30 min prior to assay. Assay Assembly • To the Perkin-Elmer Optiplate-384 containing the compound titration add 20 μL of 2.5× solution of the tritiated compound and 30 μL of the membrane-bead mixture. Incubate for one hour at room temperature with agitation. • Include total binding (assay buffer+1% DMSO) and non-specific binding (CGS 15943, 1 μM) wells. Counting • Allow the beads to settle for one hour. • Count in TopCount. Calculations • A curve fitting program (i.e., Prism, Activity Base, Chemcart) is used to determine the EC50. The Ki value is calculated using the Cheng-Prusoff equation. Ki=EC50/(1+(radioligand concentration/Kd))
(In a scintillation proximity assay essentially only radioactivity close to the scintillant gives light.)
Sequence of human A2A receptor (P29274 whole entry): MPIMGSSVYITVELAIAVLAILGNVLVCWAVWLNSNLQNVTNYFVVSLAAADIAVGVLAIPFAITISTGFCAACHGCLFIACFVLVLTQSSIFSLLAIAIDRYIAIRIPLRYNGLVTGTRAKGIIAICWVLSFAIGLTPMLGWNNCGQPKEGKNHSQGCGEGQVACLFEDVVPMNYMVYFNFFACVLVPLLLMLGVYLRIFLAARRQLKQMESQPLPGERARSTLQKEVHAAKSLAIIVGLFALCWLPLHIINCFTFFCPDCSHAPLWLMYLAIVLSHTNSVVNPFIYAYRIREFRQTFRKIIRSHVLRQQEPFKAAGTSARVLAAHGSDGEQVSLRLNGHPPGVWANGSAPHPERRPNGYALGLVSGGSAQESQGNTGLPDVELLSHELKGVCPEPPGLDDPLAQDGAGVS
One may read the Ki as a dissociation constant, usually derived from enzyme kinetics or from competition with a known ligand. The low end stands for a stronger hold on the target, the high end for a looser hold on the target. `Nc1nc2c3c(ccc2c2nc(CCN4CCCC(F)(C(F)(F)F)C4)nn12)OC(F)(F)O3` (single isomer, unassigned) [Example 73, (R or S)-2,2-difluoro-8-(2-(3-fluoro-3-(trifluoromethyl)piperidin-1-yl)ethyl)-[1,3]dioxolo[4,5-h][1,2,4]triazolo[1,5-c]quinazolin-5-amine] yielded an inhibition constant (Ki) of 0.9 nM.
In the case of `Nc1nc2c3c(ccc2c2nc(CN4CCCC(F)(F)C4)nn12)OC(F)(F)O3` [Example 118, 8-[(3,3-difluoropiperidin-1-yl)methyl]-2,2-difluoro[1,3]dioxolo[4,5-h][1,2,4] triazolo[1,5-c]quinazolin-5-amine] it was 4.2 nM.
For `CC(Cc1nc2c3ccc4c(c3nc(N)n2n1)OC(F)(F)O4)N1CC(F)(F)C1` (single isomer, unassigned) [Example 93, (R or S)-8-[2-(3,3-difluoroazetidin-1-yl)propyl]-2,2-difluoro[1,3] dioxolo[4,5-h][1,2,4]triazolo[1,5-c] quinazolin-5-amine], the Ki amounted to 4.8 nM.
With `Nc1nc2c3c(ccc2c2nc(CCN4CCN(C5CCCC5)C(=O)C4)nn12)OC(F)(F)O3` [Example 49, 4-[2-(5-amino-2,2-difluoro[1,3]dioxolo[4,5-h][1,2,4]triazolo [1,5-c]quinazolin-8-yl)ethyl]-1-cyclopentylpiperazin-2-one], the inhibition constant Ki was 1.6 nM.
The value for `Nc1nc2c3c(ccc2c2nc(C4CCCN(c5cccc(F)c5)C4)nn12)OC(F)(F)O3` (single isomer, unassigned) [Example 142, (R or S)-2,2-difluoro-8-[1-(3-fluorophenyl)piperidin-3-yl][1,3]dioxolo[4,5-h][1,2,4]triazolo[1,5-c]quinazolin-5-amine] was 1.2 nM; that for `C[C@@H]1CN(c2ccc(F)cc2)CCN1Cc1nc2c3ccc4c(c3nc(N)n2n1)OC(F)(F)O4` [Example 106, 2,2-difluoro-8-{[(2R)-4-(4-fluorophenyl)-2-methylpiperazin-1-yl]methyl}[1,3]dioxolo[4,5-h][1,2,4] triazolo[1,5-c]quinazolin-5-amine] was 2.1 nM.
In the case of `C[C@@H]1CC[C@@H](C)N1CCc1nc2c3ccc4c(c3nc(N)n2n1)OC(F)(F)O4` [Example 34, 8-{2-[(2R,5R)-2,5-dimethylpyrrolidin-1-yl]ethyl}-2,2-difluoro[1,3]dioxolo[4,5-h][1,2,4]triazolo[1,5-c]quinazolin-5-amine] it was 11 nM.
The value for `Nc1nc2c3c(ccc2c2nc(C4CCCN(CCC(F)(F)F)C4)nn12)OC(F)(F)O3` (single isomer, unassigned) [Example 141, (R or S)-2,2-difluoro-8-(1-(3,3,3-trifluoropropyl)piperidin-3-yl)-[1,3]dioxolo[4,5-h][1,2,4]triazolo[1,5-c]quinazolin-5-amine] was 55 nM; that for `CC(c1nc2c3ccc4c(c3nc(N)n2n1)OC(F)(F)O4)N1CC(F)(F)C1` (single isomer, unassigned) [Example 132, (R or S)-8-[1-(3,3-difluoroazetidin-1-yl)ethyl]-2,2-difluoro[1,3]dioxolo [4,5-h][1,2,4]triazolo[1,5-c]quinazolin-5-amine] was 56 nM; that for `Nc1nc2c3c(ccc2c2nc(CCN4CCCC(O)(C(F)(F)F)C4)nn12)OC(F)(F)O3` (single isomer, unassigned) [Example 71, (R or S)-1-(2-(5-amino-2,2-difluoro-[1,3]dioxolo[4,5-h][1,2,4]triazolo[1,5-c]quinazolin-8-yl)ethyl)-3-(trifluoromethyl)piperidin-3-ol] was 3.9 nM.
Molecule `C[C@@H]1CN(CCc2nc3c4ccc5c(c4nc(N)n3n2)OC(F)(F)O5)C[C@@H](C)O1` [Example 63, 8-{2-[(2R,6R)-2,6-dimethylmorpholin-4-yl]ethyl}-2,2-difluoro[1,3]dioxolo[4,5-h][1,2,4] triazolo[1,5-c]quinazolin-5-amine] had a Ki of 36 nM.
Turning to `C[C@@H](Cc1nc2c3ccc4c(c3nc(N)n2n1)OC(F)(F)O4)N1CCCC(C)(F)C1` (single isomer, unassigned) [Example 90, 2,2-difluoro-8-{(2S)-2-[(3R or 3S)-3-fluoro-3-methylpiperidin-1-yl]propyl}[1,3] dioxolo[4,5-h] [1,2,4]triazolo[1,5-c]quinazolin-5-amine], the affinity, expressed as Ki, was 12 nM.
Turning to `CC1(C)CN(CCc2nc3c4ccc5c(c4nc(N)n3n2)OC(F)(F)O5)C1` [Example 33, 8-[2-(3,3-dimethylazetidin-1-yl)ethyl]-2,2-difluoro[1,3]dioxolo [4,5-h][1,2,4]triazolo[1,5-c]quinazolin-5-amine], affinity was put at a Ki of 29 nM.
The value for `CC(c1nc2c3ccc4c(c3nc(N)n2n1)OC(F)(F)O4)N1CC(F)(F)C1` (single isomer, unassigned) [Example 131, (R or S)-8-[1-(3,3-difluoroazetidin-1-yl)ethyl]-2,2-difluoro[1,3]dioxolo [4,5-h][1,2,4]triazolo[1,5-c]quinazolin-5-amine] was 130 nM; that for `Nc1nc2c3c(ccc2c2nc(CN4Cc5ccc(F)cc5C4)nn12)OC(F)(F)O3` [Example 120, 2,2-difluoro-8-[(5-fluoro-1,3-dihydro-2H-isoindol-2-yl)methyl][1,3] dioxolo[4,5-h][1,2,4]triazolo[1,5-c]quinazolin-5-amine] was 2.7 nM; that for `Cc1csc(CN(Cc2nc3c4ccc5c(c4nc(N)n3n2)OC(F)(F)O5)CC2CC2)n1` [Example 127, 8-({(cyclopropylmethyl)[(4-methyl-1,3-thiazol-2-yl)methyl]amino}methyl)-2,2-difluoro[1,3]dioxolo[4,5-h][1,2,4] triazolo[1,5-c]quinazolin-5-amine] was 1.4 nM.
`Nc1nc2c3c(ccc2c2nc(CCn4cccn4)nn12)OC(F)(F)O3` [Example 99, 8-(2-(1H-pyrazol-1-yl)ethyl)-2,2-difluoro-[1,3]dioxolo[4,5-h][1,2,4]triazolo[1,5-c]quinazolin-5-amine] yielded a Ki of 2.7 nM.
The value for `Nc1nc2c3c(ccc2c2nc(Cn4nc(C(F)(F)F)cc4C(F)(F)F)nn12)OC(F)(F)O3` [Example 130, 8-{[3,5-bis(trifluoromethyl)-1H-pyrazol-1-yl]methyl}-2,2-difluoro [1,3]dioxolo[4,5-h][1,2,4]triazolo [1,5-c]quinazolin-5-amine] was 3.9 nM; that for `CC(Cc1nc2c3ccc4c(c3nc(N)n2n1)OC(F)(F)O4)N1CCCC(F)(F)C1` (single isomer, unassigned) [Example 95, (R or S)-8-[2-(3,3-difluoropiperidin-1-yl)propyl]-2,2-difluoro[1,3] dioxolo[4,5-h][1,2,4]triazolo[1,5-c] quinazolin-5-amine] was 4.3 nM; that for `C[C@H](Cc1nc2c3ccc4c(c3nc(N)n2n1)OC(F)(F)O4)N1CCc2cccnc21` [Example 75, 8-[(2R)-2-(2,3-dihydro-1H-pyrrolo [2,3-b]pyridin-1-yl)propyl]-2,2-difluoro[1,3]dioxolo[4,5-h][1,2,4] triazolo[1,5-c]quinazolin-5-amine] was 4.2 nM.
`Nc1nc2c3c(ccc2c2nc(Cc4cccnc4Cl)nn12)OC(F)(F)O3` [Example 3, 8-((2-chloropyridin-3-yl)methyl)-2,2-difluoro-[1,3]dioxolo[4,5-h][1,2,4]triazolo[1,5-c]quinazolin-5-amine] came in with a Ki of 2.9 nM.
The value for `Nc1nc2c3c(ccc2c2nc(CC(C(F)F)N4Cc5cccnc5C4)nn12)OC(F)(F)O3` (single isomer, unassigned) [Example 97, (R or S)-8-(3,3-difluoro-2-(5H-pyrrolo[3,4-b]pyridin-6(7H)-yl)propyl)-2,2-difluoro-[1,3]dioxolo[4,5-h][1,2,4]triazolo[1,5-c]quinazolin-5-amine] was 2.2 nM.

For the origin of these results see patent publication US11046714B2, “2,2-difluorodioxolo A2A receptor antagonists” (Merck Sharp & Dohme Corp., priority 2013, dated 2021).
